Laboratory results as given in patent publication US12590062B2, “PD-1/PD-L1 inhibitors” (Gilead Sciences, Inc., priority 2017, dated 2026).

Legend:
[1] = target: T1, PD-L1 (Homo sapiens, UniProt Q9NZQ7); experiment: PD-L1/PD-L1 dimerization biochemical protein-protein interaction assay (ALPHA); assay type: binding; details: compound-induced PD-L1 dimerization, head prints '1 nM' (0.5 nM His-tagged PD-L1 and 0.5 nM FLAG-tagged PD-L1), read-out: AC50 PDL1 Dimer Alpha 1 nM
T1 construct: determine if they can specifically dimerize the extracellular domains of PD-L1
Method in brief: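 After 2 h at 25 °C with compound, His- and FLAG-tagged PD-L1 ECDs (each 0.5 nM final; 25 mM Hepes pH 7.4, 150 mM NaCl) were detected by sequential anti-His acceptor and anti-FLAG donor bead incubations. Dose-response curves fitted to four-parameter equation for AC50.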

[2] = target: T2, PD-1/PD-L1 interaction (Homo sapiens, UniProt Q9NZQ7); experiment: PD-1/PD-L1 NFAT reporter co-culture assay; assay type: cell-based; details: Jurkat PD-1 NFAT-luciferase cells co-cultured with aAPC-PD-L1 CHO cells, 6 hrs at 37° C.; read-out: EC50 NFAT Luciferase
T2 construct: expressed in transfected cells; host or cells: CHO cells (aAPC-PD-L1) co-cultured with Jurkat cells overexpressing PD-1 and an NFAT-luciferase reporter
Method in brief: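 First, CHO cells displaying anti-CD3 antibody and PD-L1 were plated overnight. Next, compound-treated PD-1 Jurkat NFAT-luciferase reporter cells in 2% FBS RPMI were added for 6 h at 37 °C. Finally, ONE-Glo luminescence was read and EC50 values fitted with a four-parameter equation.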

[3] = target: PD-1/PD-L1 (Homo sapiens, UniProt Q9NZQ7); experiment: PD-1/PD-L1 biochemical protein-protein interaction assay (ALPHA); assay type: binding; details: 0.3 nM His tagged PD-L1, 2.5 nM biotinylated Fc-PD-1, 60 minutes at 25° C., read-out: IC50 PD-L1-PD-1 Alpha IC50-mono PD-L1-fcP-D1
Method in brief: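 Bead proximity read-out: compound-driven loss of ALPHA signal between anti-His acceptor and streptavidin donor beads (20 μg/mL acceptor). Proteins: 0.3 nM His-PD-L1, 2.5 nM biotin-Fc-PD-1, final. 60 min, 25° C, Hepes pH 7.4 buffer. IC50 via four-parameter dose-response fit.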

T1 sequence (Q9NZQ7 19-238 limits assumed): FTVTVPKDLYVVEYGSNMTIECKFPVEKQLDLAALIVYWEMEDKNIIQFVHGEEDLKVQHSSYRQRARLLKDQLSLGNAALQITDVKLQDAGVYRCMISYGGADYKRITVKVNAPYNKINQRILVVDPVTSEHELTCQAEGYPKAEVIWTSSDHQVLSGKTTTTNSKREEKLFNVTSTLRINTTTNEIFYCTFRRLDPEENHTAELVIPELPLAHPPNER
T1 sequence (Q9NZQ7 19-238 limits assumed): as above
Chain of PD-1/PD-L1 (Q9NZQ7 19-238 limits assumed): as above
T2 sequence (Q9NZQ7 19-290): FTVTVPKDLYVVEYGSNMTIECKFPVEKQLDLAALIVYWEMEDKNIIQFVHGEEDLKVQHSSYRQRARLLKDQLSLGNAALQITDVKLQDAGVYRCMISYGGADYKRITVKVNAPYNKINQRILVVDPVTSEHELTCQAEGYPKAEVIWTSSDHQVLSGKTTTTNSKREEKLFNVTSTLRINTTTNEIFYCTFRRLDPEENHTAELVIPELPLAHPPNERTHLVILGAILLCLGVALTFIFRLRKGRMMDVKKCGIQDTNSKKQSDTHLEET

COc1ccc(-c2cccc(-c3cccc(COc4cc(OCc5cncc(C#N)c5)c(CN[C@@](C)(CO)C(=O)O)cc4Cl)c3C)c2C)cc1CNCC1CCC(=O)N1 (stereo partly drawn) [Example 509]
AC50 [1]: 129 nM
EC50 [2]: 89 nM
IC50 [3]: 0.097 nM

Cc1c(COc2cc(OCc3cncc(C#N)c3)c(CN3C[C@@H](O)C[C@H]3C(=O)O)cc2Cl)cccc1-c1cccc(-c2ccc(OCCNCCO)cc2)c1C [Example 510]
AC50 [1]: 232 nM
EC50 [2]: 147 nM
IC50 [3]: 0.064 nM

Cc1c(COc2cc(OCc3cncc(C#N)c3)c(CN[C@](C)(CO)C(=O)O)cc2Cl)cccc1-c1cccc(-c2ccc(OCCNCCO)cc2)c1C [Example 511]
AC50 [1]: 36.9 nM
EC50 [2]: 197 nM
IC50 [3]: 0.082 nM

COc1cc(-c2cccc(-c3cccc(-c4cc(F)c(CNC[C@@H]5CCC(=O)N5)c(OC)c4)c3Cl)c2Cl)cc(F)c1CNC[C@@H]1CCC(=O)N1 [Example 512]
AC50 [1]: 255 nM
EC50 [2]: 131 nM
IC50 [3]: 0.526 nM

COc1cc(-c2cccc(-c3cccc(-c4ccc(CNC[C@@H]5CCC(=O)N5)c(OC)c4)c3Cl)c2Cl)ccc1CNC[C@@H]1CCC(=O)N1 [Example 513]
AC50 [1]: 89.3 nM
EC50 [2]: 47 nM
IC50 [3]: 0.301 nM

Cc1c(COc2cc(OCc3cncc(C#N)c3)c(CNC[C@@H](O)CC(=O)O)cc2Cl)cccc1-c1cccc(-c2ccc(CNC[C@@H](O)CC(=O)O)c(-c3ccccc3)c2)c1C [Example 514]
AC50 [1]: 359 nM
EC50 [2]: 156 nM
IC50 [3]: 0.735 nM

Cc1c(COc2cc(OCc3cncc(C#N)c3)c(CN[C@@](C)(CO)C(=O)O)cc2Cl)cccc1-c1cccc(-c2ccc(OCCN3CCC4(CCCNC4=O)CC3)cc2)c1C [Example 516]
AC50 [1]: 104 nM
EC50 [2]: 92 nM
IC50 [3]: 0.065 nM

Cc1c(COc2cc(OCc3cncc(C#N)c3)c(CN[C@@](C)(CO)C(=O)O)cc2Cl)cccc1-c1cccc(-c2ccc(OCCNC[C@@H]3CCC(=O)N3)cc2)c1C [Example 517]
AC50 [1]: 91.7 nM
EC50 [2]: 154 nM
IC50 [3]: 0.064 nM

Cc1c(COc2cc(OCc3cncc(C#N)c3)c(CN[C@@](C)(CO)C(=O)O)cc2Cl)cccc1-c1cccc(-c2ccc(OCCNC[C@H]3CCC(=O)N3)cc2)c1C [Example 518]
AC50 [1]: 96.1 nM
EC50 [2]: 159 nM
IC50 [3]: 0.064 nM

Cc1c(COc2cc(OCc3cncc(C#N)c3)c(CNC[C@@H](O)CC(=O)O)cc2Cl)cccc1-c1cccc(-c2ccc(OCCN3CC4(CCC(=O)N4)C3)cc2)c1C [Example 519]
AC50 [1]: 103 nM
EC50 [2]: 125 nM
IC50 [3]: 0.064 nM

Cc1c(COc2cc(OCc3cncc(C#N)c3)c(CN[C@@](C)(CO)C(=O)O)cc2Cl)cccc1-c1cccc(-c2ccc(OCCN3CC4(CCC(=O)N4)C3)cc2)c1C [Example 520]
AC50 [1]: 57.5 nM
EC50 [2]: 97 nM
IC50 [3]: 0.064 nM

Cc1c(COc2cc(OCc3cncc(C#N)c3)c(CN[C@@](C)(CO)C(=O)O)cc2Cl)cccc1-c1cccc(-c2ccc(OCCN3CCC4(CC3)CNC(=O)C4)cc2)c1C [Example 521]
AC50 [1]: 125 nM
EC50 [2]: 106 nM
IC50 [3]: 0.064 nM

Cc1c(COc2cc(OCc3cncc(C(=O)O)c3)c(CN[C@@](C)(CO)C(=O)O)cc2Cl)cccc1-c1cccc(-c2ccc(OCCN3CC[C@@H](O)C3)cc2)c1C [Example 522]
AC50 [1]: 74.3 nM
EC50 [2]: 195 nM
IC50 [3]: 0.064 nM

COc1cc(OCc2cccc(-c3cccc(COc4cc(OC)c(CNC[C@@H](O)CC(=O)O)cc4C#N)c3C)c2C)c(C#N)cc1CNC[C@@H](O)CC(=O)O [Example 523]
AC50 [1]: ≥ 10000 nM
EC50 [2]: 129 nM
IC50 [3]: 0.295 nM

COc1nc(O[C@H]2CCc3c(-c4cccc(-c5cnc6c(CN7CC8(CNC(=O)C8)C7)cn(C)c6n5)c4Cl)cccc32)c(Cl)cc1CN1CCC[C@@H](C(=O)O)C1 [Example 524]
AC50 [1]: 67.7 nM
EC50 [2]: 39 nM
IC50 [3]: 0.064 nM

COc1nc(O[C@H]2CCc3c(-c4cccc(-c5cnc6c(CN7CC8(CNC(=O)C8)C7)cn(C)c6n5)c4Cl)cccc32)c(Cl)cc1CN1CC[C@@H](C(=O)O)C1 [Example 525]
AC50 [1]: 34.8 nM
EC50 [2]: 27 nM
IC50 [3]: 0.064 nM

COc1nc(O[C@H]2CCc3c(-c4cccc(-c5cnc6c(CNC[C@@H]7CCC(=O)N7)cn(C)c6n5)c4Cl)cccc32)c(Cl)cc1CN1CCC[C@@H](C(=O)O)C1 [Example 526]
AC50 [1]: 73.6 nM
EC50 [2]: 110 nM
IC50 [3]: 0.064 nM

COc1nc(O[C@H]2CCc3c(-c4cccc(-c5cnc6c(CN7CC8(CNC(=O)C8)C7)cn(C)c6n5)c4Cl)cccc32)c(Cl)cc1CN1CC(C(=O)O)C1 [Example 527]
AC50 [1]: 69.9 nM
EC50 [2]: 46 nM
IC50 [3]: 0.064 nM

COc1nc(O[C@H]2CCc3c(-c4cccc(-c5cnc6c(CNC[C@@H]7CCC(=O)N7)cn(C)c6n5)c4Cl)cccc32)c(Cl)cc1CN1CC[C@@H](C(=O)O)C1 [Example 528]
AC50 [1]: 63.3 nM
EC50 [2]: 89 nM
IC50 [3]: 0.068 nM

COc1nc(O[C@H]2CCc3c(-c4cccc(-c5cnc6c(CNC[C@@H]7CCC(=O)N7)cn(C)c6n5)c4Cl)cccc32)c(Cl)cc1CN1CC(C(=O)O)C1 [Example 529]
AC50 [1]: 56.2 nM
EC50 [2]: 165 nM
IC50 [3]: 0.064 nM

N#Cc1cncc(COc2nc(OCc3cccc(-c4cccc(-c5ccc(CNC[C@@H]6CCC(=O)N6)cc5)c4Cl)c3Cl)c(Br)cc2CNC[C@@H]2CCC(=O)N2)c1 [Example 540]
AC50 [1]: 126 nM
EC50 [2]: 103 nM
IC50 [3]: 0.593 nM

COc1cc(-c2cccc(-c3cccc(COc4nc(OCc5cncc(C#N)c5)c(CNC[C@@H]5CCC(=O)N5)cc4Br)c3Cl)c2Cl)ccc1CNC[C@@H]1CCC(=O)N1 [Example 541]
AC50 [1]: 70.4 nM
EC50 [2]: 93 nM
IC50 [3]: 0.641 nM

COc1cc(-c2cccc(-c3cccc(COc4nc(OC)c(CNC[C@@H]5CCC(=O)N5)cc4Br)c3Cl)c2Cl)ccc1CNC[C@@H]1CCC(=O)N1 [Example 542]
AC50 [1]: 136 nM
EC50 [2]: 197 nM
IC50 [3]: 1.24 nM

COc1nc(-c2cccc(-c3cccc(COc4nc(OCc5cncc(C#N)c5)c(CN5CCCC[C@H]5C(=O)O)cc4Br)c3Cl)c2Cl)ccc1C1=NCCN1 [Example 543]
AC50 [1]: 49.7 nM
EC50 [2]: 187 nM
IC50 [3]: 0.07 nM

CS(=O)(=O)c1cncc(COc2nc(OCc3cccc(-c4cccc(-c5ccc6c(c5)C[C@@H](N)C6)c4Cl)c3Cl)c(Br)cc2CN2CCCC[C@H]2C(=O)O)c1 [Example 544]
AC50 [1]: 17.3 nM
EC50 [2]: 109 nM
IC50 [3]: 0.09 nM

CC(C)(NCc1cc(Br)c(OCc2cccc(-c3cccc(-c4ccc5c(c4)C[C@@H](N)C5)c3Cl)c2Cl)nc1OCc1cncc(S(C)(=O)=O)c1)C(=O)O [Example 545]
AC50 [1]: 24.4 nM
EC50 [2]: 145 nM
IC50 [3]: 0.089 nM

CS(=O)(=O)c1cncc(COc2nc(OCc3cccc(-c4cccc(-c5ccc6c(c5)C[C@@H](N)C6)c4Cl)c3Cl)c(Br)cc2CNC[C@@H](O)CC(=O)O)c1 [Example 546]
AC50 [1]: 39.2 nM
EC50 [2]: 109 nM
IC50 [3]: 0.515 nM

C[C@](CO)(NCc1cc(Br)c(OCc2cccc(-c3cccc(-c4ccc5c(c4)C[C@@H](N)C5)c3Cl)c2Cl)nc1OCc1cncc(S(C)(=O)=O)c1)C(=O)O [Example 547]
AC50 [1]: 20.1 nM
EC50 [2]: 51 nM
IC50 [3]: 0.363 nM

COc1nc(OCc2cccc(-c3cccc(-c4ccc5c(c4)C[C@@H](N)C5)c3Cl)c2Cl)c(Br)cc1CNC[C@H](O)CC(=O)O [Example 548]
AC50 [1]: 74.6 nM
EC50 [2]: 197 nM
IC50 [3]: 0.676 nM

COc1nc(OCc2cccc(-c3cccc(-c4ccc5c(c4)C[C@@H](N)C5)c3Cl)c2Cl)c(Br)cc1CN[C@](C)(CO)C(=O)O [Example 549]
AC50 [1]: 54.6 nM
EC50 [2]: 177 nM
IC50 [3]: 0.355 nM

C[C@@](CO)(NCc1cc(Br)c(OCc2cccc(-c3cccc(-c4ccc5c(c4)C[C@@H](N)C5)c3Cl)c2Cl)nc1OCc1cncc(S(C)(=O)=O)c1)C(=O)O [Example 550]
AC50 [1]: 47.7 nM
EC50 [2]: 163 nM
IC50 [3]: 0.134 nM

CC(C)(NCc1cc(Br)c(OCc2cccc(-c3cccc(-c4ccc5c(c4)C[C@@H](N)C5)c3Cl)c2Cl)nc1OCc1cncc(C#N)c1)C(=O)O [Example 551]
AC50 [1]: 12.4 nM
EC50 [2]: 100 nM
IC50 [3]: 0.064 nM

N#Cc1cncc(COc2nc(OCc3cccc(-c4cccc(-c5ccc6c(c5)C[C@@H](N)C6)c4Cl)c3Cl)c(Br)cc2CNC[C@@H](O)CC(=O)O)c1 [Example 552]
AC50 [1]: 74.7 nM
EC50 [2]: 152 nM
IC50 [3]: 0.716 nM

C[C@](CO)(NCc1cc(Br)c(OCc2cccc(-c3cccc(-c4ccc5c(c4)C[C@@H](N)C5)c3Cl)c2Cl)nc1OCc1cncc(C#N)c1)C(=O)O [Example 553]
AC50 [1]: 17.7 nM
EC50 [2]: 70 nM
IC50 [3]: 0.101 nM

C[C@@](CO)(NCc1cc(Br)c(OCc2cccc(-c3cccc(-c4ccc5c(c4)C[C@@H](N)C5)c3Cl)c2Cl)nc1OCc1cncc(C#N)c1)C(=O)O [Example 554]
AC50 [1]: 39.5 nM
EC50 [2]: 148 nM
IC50 [3]: 0.15 nM

COc1nc(-c2cccc(-c3cccc(COc4nc(OCc5cncc(C#N)c5)c(CNCCO)cc4Br)c3Cl)c2Cl)ccc1C1=NCCN1 [Example 555]
AC50 [1]: 23.1 nM
EC50 [2]: 84 nM
IC50 [3]: 0.396 nM
